Test system: B-Raf
Assay: Raf activation assay in L929 cells, B-Raf
Assay type: cell-based, murine
Protocol: Cell lines and culture. L929 cells (ATCC CCL1 were maintained in Dulbecco's modified Eagle's medium with 5% newborn calf serum and 5% bovine calf serum (BCS) supplemented with 100 ug/ml streptomycin and 100 U/ml penicillin. The cells were grown in 10 cm dishes at 37° C. in 7.5% CO2. Cells were made quiescent where indicated by incubation in Dulbecco's modified Eagle's medium and 0.1% bovine serum albumin for 24 h. Recombinant murine TNFα and recombinant human bFGF (147aa) were from R&D Systems, Minneapolis, Minn. Cells were pretreated where indicated with the MEK-1 inhibitor PD#098059 (Parke-Davis Pharmaceutical Corp. Ann Arbor, Mich.) for 1 h at 37° C. Cells were stimulated by incubation with the indicated cytokine or growth factor for various times at 37° C. […] JNK activity was measured using a solid state kinase assay in which glutathione S-transferase-c-Jun (1-79) (GST-JUN) cound to glutathione-Sepharose 4B beads was used to affinity purify JNK and then JNK activity was measured in an in vitro kinase assay using the sepharose bound GST-Jun as a substrate (Hibi, M., et al. (1993) Genes & Development 7:2135-2148). […] MAPK Assay MAPK activity was measured exactly as described previously (Gardner, A. M., et al. (1994) Meth. Enzymol. 238:258-270) with the exception that MonoQ FPLC fractionation was replaced by step elution from a DEAE-Sephacel column using 0.5 M NaCl in loading buffer. […]

| Substance | activation of B-Raf (phosphorylation of kinase-inactive MEK-1) |
| --- | --- |
| TNFα | does not significantly activate either isoform of Raf |
| bFGF: recombinant human bFGF (147aa), basic fibroblast growth factor | activation of both B-Raf and C-Raf |

From patent US20080201790A1, “Method and product for regulating cell responsiveness to external signals” (priority 1993, published 2008)
